Usually IC50 stands for the concentration needed to halve the response being measured.

Peptide text beside a SMILES is read from it.

The assay addresses T1, ACE (Oryctolagus cuniculus, UniProt P12822).
T1 construct: purchased Sigma A 6778
T1 sequence (P12822 34-1310): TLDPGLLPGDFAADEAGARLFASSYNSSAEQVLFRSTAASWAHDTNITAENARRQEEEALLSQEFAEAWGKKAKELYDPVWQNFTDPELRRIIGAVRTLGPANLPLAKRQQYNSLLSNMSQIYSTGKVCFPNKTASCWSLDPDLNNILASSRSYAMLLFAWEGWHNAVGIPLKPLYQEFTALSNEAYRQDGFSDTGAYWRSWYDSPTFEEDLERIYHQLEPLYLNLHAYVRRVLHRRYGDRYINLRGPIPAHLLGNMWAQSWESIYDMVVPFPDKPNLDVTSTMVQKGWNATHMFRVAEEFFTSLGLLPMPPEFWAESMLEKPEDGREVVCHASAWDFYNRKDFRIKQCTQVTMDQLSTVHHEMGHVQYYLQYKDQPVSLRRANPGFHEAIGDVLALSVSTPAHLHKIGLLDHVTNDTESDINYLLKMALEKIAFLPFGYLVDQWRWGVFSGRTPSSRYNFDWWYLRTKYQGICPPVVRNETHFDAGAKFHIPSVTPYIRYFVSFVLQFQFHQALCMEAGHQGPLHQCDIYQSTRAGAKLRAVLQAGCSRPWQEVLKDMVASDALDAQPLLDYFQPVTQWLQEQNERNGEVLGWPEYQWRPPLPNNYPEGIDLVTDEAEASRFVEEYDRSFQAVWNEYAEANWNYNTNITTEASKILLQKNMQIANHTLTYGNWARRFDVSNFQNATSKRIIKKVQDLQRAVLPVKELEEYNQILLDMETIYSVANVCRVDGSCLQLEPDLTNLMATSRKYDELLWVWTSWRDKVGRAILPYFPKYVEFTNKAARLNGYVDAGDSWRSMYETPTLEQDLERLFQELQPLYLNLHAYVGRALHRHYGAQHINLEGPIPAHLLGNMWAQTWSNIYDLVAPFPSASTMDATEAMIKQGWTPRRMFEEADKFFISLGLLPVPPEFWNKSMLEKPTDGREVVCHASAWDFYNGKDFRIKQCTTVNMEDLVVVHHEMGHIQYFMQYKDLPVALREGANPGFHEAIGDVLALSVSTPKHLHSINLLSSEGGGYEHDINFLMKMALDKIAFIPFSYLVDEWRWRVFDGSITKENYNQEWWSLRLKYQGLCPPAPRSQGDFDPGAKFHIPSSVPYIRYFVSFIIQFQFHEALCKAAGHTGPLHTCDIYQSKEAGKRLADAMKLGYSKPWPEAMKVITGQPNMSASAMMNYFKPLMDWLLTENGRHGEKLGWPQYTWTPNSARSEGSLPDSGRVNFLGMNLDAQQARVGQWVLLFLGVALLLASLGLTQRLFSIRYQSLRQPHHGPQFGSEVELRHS
As to the kind of experiment: ACE-inhibitory activity, Cushman and Cheung method (hippuric acid from HHL). It counts as biochemical. The note with it: synthesized peptides. An excerpt: The hydrolysate of the present invention has ACE-inhibitory activity. ACE-inhibitory activity may be assayed using known methods, for example based on the method reported by Cushman and Cheung (1971) by measuring the end product hippuric acid (HA) from the enzymatic reaction between ACE (Sigma A 6778) and the substrate HHL (Sigma H 1635). (CUSHMAN, D. W. & CHEUNG, H. S. (1971). Concentrations of Angiotensin-Converting Enzyme in Tissues of Rat. Biochimica Et Biophysica Acta 250(1), 261-265). A different suitable assay is disclosed by Vermeirssen et al. (2002), J. Biochem Biophys. Methods 51 (2002), pages 75-87. Briefly, this is a spectrophotometric method in which ACE inhibition is measured using the substrate furanacryloyl-Phe-Gly-Gly and rabbit lung acetone extract as the ACE source. The IC50 may be determined.
The peptide composition of the RP-HPLC fractions was analysed using LCMS (liquid chromatography mass spectrometry) and individual peptides were sequenced using LC-MS/MS (liquid chromatography - tandem mass spectrometry). Peptides having the sequences identified by LC-MS/MS were then synthesized and analysed. Molecular weight and pl were calculated by ExPASy Proteomics Server. ACE-inhibitory activity was determined based on the Cushman and Cheung method mentioned elsewhere herein and expressed as the IC50 (concentration that inhibits 50% of enzyme activity).
`CC(C)C[C@H](NC(=O)[C@H](C)N)C(=O)N1CCC[C@H]1C(=O)N[C@@H](Cc1c[nH]cn1)C(=O)O` [ALPH] (H-ALPH-OH) came in with an IC50 of over 300 µM.
Then `CC(C)C[C@H](NC(=O)[C@@H](N)Cc1ccccc1)C(=O)O` [FL] (H-Phe-Leu-OH), with 380 µM; and `CC(C)C[C@H](NC(=O)[C@@H](N)CCCCN)C(=O)N1CCC[C@H]1C(=O)O` [KLP] (H-Lys-Leu-Pro-OH), with 200 µM; and `CC(C)C[C@H](N)C(=O)N[C@@H](Cc1ccccc1)C(=O)O` [LF] (H-Leu-Phe-OH), with 460 µM.
Then `CC(C)C[C@H](NC(=O)[C@H](CC(C)C)NC(=O)[C@@H](N)CC(C)C)C(=O)N[C@@H](CCCCN)C(=O)O` [LLLK] (H-LLLK-OH), with over 300 µM; and `CC(C)C[C@H](NC(=O)[C@@H](N)CC(C)C)C(=O)N[C@H](C(=O)N[C@@H](CCCCN)C(=O)O)[C@@H](C)O` [LLTK] (H-LLTK-OH), with over 300 µM.
`CC(C)C[C@H](N)C(=O)N[C@@H](CC(N)=O)C(=O)N[C@@H](C)C(=O)O` [LNA*] (H-Leu-Asn-Ala-OH) returned an IC50 of 200 µM.
Then `CC(C)C[C@H](N)C(=O)N[C@@H](CC(N)=O)C(=O)N1CCC[C@H]1C(=O)N[C@@H](CCCCN)C(=O)O` [LNPK] (H-LNPK-OH), with over 300 µM; and `CC(C)C[C@H](N)C(=O)N[C@H](C(=O)N[C@@H](C)C(=O)N[C@@H](Cc1c[nH]cn1)C(=O)O)C(C)C` [LVAH] (H-LVAH-OH), with over 300 µM.
For `CC(C)C[C@H](N)C(=O)N[C@H](C(=O)N[C@@H](C)C(=O)N[C@@H](CCCCN)C(=O)O)C(C)C` [LVAK] (H-LVAK-OH), the IC50 was over 300 µM.
Then `CC(C)C[C@H](N)C(=O)N[C@H](C(=O)N[C@@H](CCCCN)C(=O)O)C(C)C` [LVK] (H-Leu-Val-Lys-OH), with 225 µM.
Then `CC(C)C[C@H](N)C(=O)N[C@@H](Cc1ccc(O)cc1)C(=O)N[C@@H](CCCCN)C(=O)O` [LYK] (H-Leu-Tyr-Lys-OH), with 250 µM.
Then `NCCCC[C@H](NC(=O)[C@@H]1CCCN1C(=O)[C@@H](N)CC(N)=O)C(=O)O` [NPK*] (H-Asn-Pro-Lys-OH), with over 300 µM; and `CC(C)[C@H](NC(=O)[C@@H](N)CC(N)=O)C(=O)N[C@@H](Cc1ccc(O)cc1)C(=O)O` [NVY] (H-Asn-Val-Tyr-OH), with over 300 µM.
Turning to `CC(C)C[C@H](NC(=O)[C@@H](N)C(C)C)C(=O)N[C@@H](C)C(=O)N[C@@H](Cc1c[nH]cn1)C(=O)O` [VLAH*] (H-VLAH-OH), the IC50 is over 300 µM.

For the origin of these results see EP2571508B1, “PROCESS FOR PRODUCING A SHRIMP HYDROLYSATE USING ELECTRODIALYSIS” (Marealis AS, priority 2010, dated 2011).
